# Assay results as given in ChEMBL document CHEMBL1154382, “Preliminary SAR analysis of novel antiproliferative N(6),5'-bis-ureidoadenosine derivatives” (2009).
# Assays:
# Assay type in all cases: functional
# Settings in all cases: values are per cent of control
# [1] = tested on: CCRF-CEM; assay: Antiproliferative activity against human CCRF-CEM cells at 10 uM assessed as cell growth inhibition relative to control
# [2] = tested on: HL-60(TB); assay: Antiproliferative activity against human HL-60(TB) cells at 10 uM assessed as cell growth inhibition relative to control
# [3] = tested on: K562; assay: Antiproliferative activity against human K562 cells at 10 uM assessed as cell growth inhibition relative to control
# [4] = tested on: MOLT-4; assay: Antiproliferative activity against human MOLT4 cells at 10 uM assessed as cell growth inhibition relative to control
# [5] = Antiproliferative activity against human […] cells at 10 uM assessed as cell growth inhibition relative to control
# [6] = tested on: A549; assay: Antiproliferative activity against human A549 cells at 10 uM assessed as cell growth inhibition relative to control
# [7] = tested on: EKVX; assay: Antiproliferative activity against human EKVX cells at 10 uM assessed as cell growth inhibition relative to control
# [8] = tested on: PC-3; assay: Antiproliferative activity against human PC3 cells at 10 uM assessed as cell growth inhibition relative to control
# [9] = tested on: HOP-62; assay: Antiproliferative activity against human HOP62 cells at 10 uM assessed as cell growth inhibition relative to control
# [10] = tested on: HOP-92; assay: Antiproliferative activity against human HOP92 cells at 10 uM assessed as cell growth inhibition relative to control
# [11] = tested on: NCI-H226; assay: Antiproliferative activity against human NCI-H226 cells at 10 uM assessed as cell growth inhibition relative to control
# [12] = tested on: NCI-H23; assay: Antiproliferative activity against human NCI-H23 cells at 10 uM assessed as cell growth inhibition relative to control
# [13] = tested on: NCI-H322M; assay: Antiproliferative activity against human NCI-H322M cells at 10 uM assessed as cell growth inhibition relative to control
# [14] = tested on: NCI-H460; assay: Antiproliferative activity against human NCI-H460 cells at 10 uM assessed as cell growth inhibition relative to control
# [15] = tested on: NCI-H522; assay: Antiproliferative activity against human NCI-H522 cells at 10 uM assessed as cell growth inhibition relative to control
# [16] = tested on: COLO 205; assay: Antiproliferative activity against human COLO205 cells at 10 uM assessed as cell growth inhibition relative to control
# [17] = tested on: HCC 2998; assay: Antiproliferative activity against human HCC2998 cells at 10 uM assessed as cell growth inhibition relative to control
# [18] = tested on: HCT-116; assay: Antiproliferative activity against human HCT116 cells at 10 uM assessed as cell growth inhibition relative to control
# [19] = tested on: HCT-15; assay: Antiproliferative activity against human HCT15 cells at 10 uM assessed as cell growth inhibition relative to control
# [20] = tested on: HT-29; assay: Antiproliferative activity against human HT-29 cells at 10 uM assessed as cell growth inhibition relative to control
# [21] = tested on: KM12; assay: Antiproliferative activity against human KM12 cells at 10 uM assessed as cell growth inhibition relative to control
# [22] = tested on: SW-620; assay: Antiproliferative activity against human SW620 cells at 10 uM assessed as cell growth inhibition relative to control
# [23] = tested on: LOX IMVI; assay: Antiproliferative activity against human LOXIMVI cells at 10 uM assessed as cell growth inhibition relative to control
# [24] = tested on: Malme-3M; assay: Antiproliferative activity against human MALME-3M cells at 10 uM assessed as cell growth inhibition relative to control
# [25] = tested on: M14; assay: Antiproliferative activity against human M14 cells at 10 uM assessed as cell growth inhibition relative to control
# [26] = tested on: SK-MEL-2; assay: Antiproliferative activity against human SK-MEL-2 cells at 10 uM assessed as cell growth inhibition relative to control
# [27] = tested on: SK-MEL-28; assay: Antiproliferative activity against human SK-MEL-28 cells at 10 uM assessed as cell growth inhibition relative to control
# [28] = tested on: SK-MEL-5; assay: Antiproliferative activity against human SK-MEL-5 cells at 10 uM assessed as cell growth inhibition relative to control
# [29] = tested on: UACC-257; assay: Antiproliferative activity against human UACC257 cells at 10 uM assessed as cell growth inhibition relative to control
# [30] = tested on: UACC-62; assay: Antiproliferative activity against human UACC62 cells at 10 uM assessed as cell growth inhibition relative to control
# [31] = tested on: SF-268; assay: Antiproliferative activity against human SF268 cells at 10 uM assessed as cell growth inhibition relative to control
# [32] = tested on: SF-295; assay: Antiproliferative activity against human SF295 cells at 10 uM assessed as cell growth inhibition relative to control
# [33] = tested on: SF-539; assay: Antiproliferative activity against human SF539 cells at 10 uM assessed as cell growth inhibition relative to control
# [34] = tested on: SNB-19; assay: Antiproliferative activity against human SNB19 cells at 10 uM assessed as cell growth inhibition relative to control
# [35] = tested on: SNB-75; assay: Antiproliferative activity against human SNB75 cells at 10 uM assessed as cell growth inhibition relative to control
# [36] = tested on: U-251; assay: Antiproliferative activity against human U251 cells at 10 uM assessed as cell growth inhibition relative to control
# [37] = tested on: IGROV-1; assay: Antiproliferative activity against human IGROV1 cells at 10 uM assessed as cell growth inhibition relative to control
# [38] = tested on: OVCAR-3; assay: Antiproliferative activity against human OVCAR-3 cells at 10 uM assessed as cell growth inhibition relative to control
# [39] = tested on: OVCAR-4; assay: Antiproliferative activity against human OVCAR4 cells at 10 uM assessed as cell growth inhibition relative to control
# [40] = tested on: OVCAR-5; assay: Antiproliferative activity against human OVCAR5 cells at 10 uM assessed as cell growth inhibition relative to control
# [41] = tested on: OVCAR-8; assay: Antiproliferative activity against human OVCAR8 cells at 10 uM assessed as cell growth inhibition relative to control
# [42] = tested on: SK-OV-3; assay: Antiproliferative activity against human SKOV3 cells at 10 uM assessed as cell growth inhibition relative to control
# [43] = tested on: 786-0; assay: Antiproliferative activity against human 786-0 cells at 10 uM assessed as cell growth inhibition relative to control
# [44] = tested on: ACHN; assay: Antiproliferative activity against human ACHN cells at 10 uM assessed as cell growth inhibition relative to control
# [45] = tested on: CAKI-1; assay: Antiproliferative activity against human Caki1 cells at 10 uM assessed as cell growth inhibition relative to control
# [46] = tested on: RXF 393; assay: Antiproliferative activity against human RXF393 cells at 10 uM assessed as cell growth inhibition relative to control
# [47] = tested on: SN12C; assay: Antiproliferative activity against human SN12C cells at 10 uM assessed as cell growth inhibition relative to control
# [48] = tested on: TK-10; assay: Antiproliferative activity against human TK10 cells at 10 uM assessed as cell growth inhibition relative to control
# [49] = tested on: UO-31; assay: Antiproliferative activity against human UO31 cells at 10 uM assessed as cell growth inhibition relative to control
# [50] = tested on: BT-549; assay: Antiproliferative activity against human BT549 cells at 10 uM assessed as cell growth inhibition relative to control
# [51] = Antiproliferative activity against human Hs 578T cells at 10 uM assessed as cell growth inhibition relative to control
# [52] = tested on: MCF7; assay: Antiproliferative activity against human MCF7 cells at 10 uM assessed as cell growth inhibition relative to control
# [53] = tested on: MDA-MB-231; assay: Antiproliferative activity against human MDA-MB-231 cells at 10 uM assessed as cell growth inhibition relative to control
# [54] = tested on: MDA-MB-468; assay: Antiproliferative activity against human MDA-MB-468 cells at 10 uM assessed as cell growth inhibition relative to control
# [55] = tested on: T47D; assay: Antiproliferative activity against human T47D cells at 10 uM assessed as cell growth inhibition relative to control
# [56] = tested on: DU-145; assay: Antiproliferative activity against human DU145 cells at 10 uM assessed as cell growth inhibition relative to control
smiles,measurement,setting,value
CNC(=O)NC[C@H]1O[C@@H](n2cnc3c(NC(=O)Nc4ccccc4)ncnc32)[C@H](O[Si](C)(C)C(C)(C)C)[C@@H]1O[Si](C)(C)C(C)(C)C,"growth, % of control at 10 µM",[1],43%
same,"growth, % of control at 10 µM",[2],24%
same,"growth, % of control at 10 µM",[3],34%
same,"growth, % of control at 10 µM",[4],24%
same,"growth, % of control at 10 µM",[5],20%
same,"growth, % of control at 10 µM",[6],23%
same,"growth, % of control at 10 µM",[7],23%
same,"growth, % of control at 10 µM",[8],8%
same,"growth, % of control at 10 µM",[9],62%
same,"growth, % of control at 10 µM",[10],-3%
same,"growth, % of control at 10 µM",[11],49%
same,"growth, % of control at 10 µM",[12],36%
same,"growth, % of control at 10 µM",[13],87%
same,"growth, % of control at 10 µM",[14],-7%
same,"growth, % of control at 10 µM",[15],46%
same,"growth, % of control at 10 µM",[16],-100%
same,"growth, % of control at 10 µM",[17],-1%
same,"growth, % of control at 10 µM",[18],0%
same,"growth, % of control at 10 µM",[19],21%
same,"growth, % of control at 10 µM",[20],-68%
same,"growth, % of control at 10 µM",[21],-4%
same,"growth, % of control at 10 µM",[22],36%
same,"growth, % of control at 10 µM",[23],13%
same,"growth, % of control at 10 µM",[24],49%
same,"growth, % of control at 10 µM",[25],33%
same,"growth, % of control at 10 µM",[26],57%
same,"growth, % of control at 10 µM",[27],60%
same,"growth, % of control at 10 µM",[28],48%
same,"growth, % of control at 10 µM",[29],43%
same,"growth, % of control at 10 µM",[30],42%
same,"growth, % of control at 10 µM",[31],36%
same,"growth, % of control at 10 µM",[32],45%
same,"growth, % of control at 10 µM",[33],33%
same,"growth, % of control at 10 µM",[34],76%
same,"growth, % of control at 10 µM",[35],46%
same,"growth, % of control at 10 µM",[36],17%
same,"growth, % of control at 10 µM",[37],53%
same,"growth, % of control at 10 µM",[38],-29%
same,"growth, % of control at 10 µM",[39],30%
same,"growth, % of control at 10 µM",[40],69%
same,"growth, % of control at 10 µM",[41],33%
same,"growth, % of control at 10 µM",[42],78%
same,"growth, % of control at 10 µM",[43],17%
same,"growth, % of control at 10 µM",[44],21%
same,"growth, % of control at 10 µM",[45],60%
same,"growth, % of control at 10 µM",[46],-37%
same,"growth, % of control at 10 µM",[47],-79%
same,"growth, % of control at 10 µM",[48],34%
same,"growth, % of control at 10 µM",[49],48%
same,"growth, % of control at 10 µM",[50],40%
same,"growth, % of control at 10 µM",[51],61%
same,"growth, % of control at 10 µM",[52],0%
same,"growth, % of control at 10 µM",[53],38%
same,"growth, % of control at 10 µM",[54],36%
same,"growth, % of control at 10 µM",[55],14%
same,"growth, % of control at 10 µM",[56],52%
